Results as given in patent publication US8232101B2, “Identification of antigenic peptides from multiple myeloma cells” (Janssen Pharmaceutica N.V., priority 2009, dated 2012).

How the values were obtained:
[1] = biological target: T1, HLA-A2 molecules in T2 cells (Homo sapiens, UniProt P04439, D140Y/D185E/D98H/E176V/E277Q/G131W/G231S/I119V/I121R/I166T/I218V/L300P/L318F/N151K/N90K/P208A/P217A/Q86G/Q94H/R138H/R169H/T345S); experiment: HLA-A2 Stabilization Assay (peptide binding, T2 cells, flow cytometry); parameters: key: Strong (S); Median (M); Weak (W); None (N)
T1 construct: HLA-A2 molecules that are synthesized in a transporter associated with antigen processing (TAP)-deficient cell line, T2; host or cells: T2 cells (TAP-deficient human cell line)
Text: The assay for peptide binding to class I major histocompatibility complex (MHC/HLA-A2) molecules is based on the ability of peptides to stabilize MHC class I, HLA-A2 molecules that are synthesized in a transporter associated with antigen processing (TAP)-deficient cell line, T2 (ATCC® Number: CRL-1992). The extent of stabilization of MHC class I molecules is directly related to the binding affinity of the added peptides (Townsend et al., Cell. 1990 Jul. 27; 62(2):285-95; Andersen et al., Tissue Antigens. 1999 August; 54(2):185-90).
For the assay, T2 cells were plated in 96-well V-bottom plates, 100 ul/well RPMI media, at a density of 1×10^6 cells/ml, with final peptide concentrations of 200 uM, 20 uM, 2 uM, 200 nM, 20 nM, 2 nM, and no peptide as negative control. The cells with peptides were incubated for 18 hours at 26° C., 5% CO2. After 18 hours, the plates were transferred to 37° C., 5% CO2 and incubated for an additional 3 hours. The cells in plate were washed once with FACS buffer (PBS, 2.5% FCS, 1% NaN3) and then stained by adding 1 ul/well FITC-labeled mouse anti-human HLA-A2 antibody (BD Pharmingen, Cat. No. 551285), 1 ul/well PI, and then incubating at 4° C. for 30 minutes. After staining, cells were resuspended in 200 ul of FACS buffer and transferred from 96-well plates to racks of 96 microtubes. Samples were run on a FACScan flow cytometer and the data were analysed by using CellQuest software.
A peptide of Hepatitis B Core protein (HBC) was used as a positive control. The Hepatitis B Core peptide is a potent HLA-A2.1 epitope and consists of residue numbers 18-27 of the core sequence, amino acids […] (SEQ ID NO:73) (Zhang et al. Immunology. 2007, 121(1):105-12).

[2] = test system: T2 cells loaded with individual peptides; experiment: 51Cr Release Assay for activity of CTL generated with peptide-loaded Drosophila aAPC; format: cell-based, human; parameters: key to CTL Activity: Strong (S); Median (M); Weak (W); None (N); conditions: for Ability to induce CTL in normal donors: truncated and computer predicted peptides; for Induction of CTL in two normal donors: Donor 1 and Donor 2, FIG. 3 and FIG. 4; for CTL Activities Median: number of donors that elicited Median activity over total number of donors; for CTL Activities Median / CTL Activities Strong / CTL Activities Weak / CTL Activities None: T2 targets loaded with individual peptide; for CTL Activities Strong: number of donors that elicited Strong activity over total number of donors; for CTL Activities Weak: number of donors that elicited Weak activity over total number of donors; for CTL Activities None: number of donors that elicited no activity over total number of donors
Procedure: Drosophila aAPC were generated from Schneider S2 cells (S2 cells), which were originally established in 1969 from several hundred Oregon-R (wild type) Drosophila melanogaster (Oregon-R) embryos (American Type Culture Collection (ATCC) CRL-1963) according to published procedures (Schneider, J. Embryol. Exp. Morph. 1972 Vol 27, pp. 353-365), and deposited in the ATCC(CRL10974). S2 cells are grown in commercial Schneider's Drosophila medium supplemented with 10% heat-inactivated fetal bovine serum. In order to generate aAPCs, human complementary DNAs (cDNAs) for HLA-A2.1, B7.1, LFA-3, ICAM-1 and CD70, were individually inserted into the pRmHa-3 vector and S2 cells were transfected using the calcium phosphate precipitation method with a mixture of HLA-A2.1, B7.1, LFA-3, ICAM-1 and CD70 plasmid DNAs (for aAPC clone 1120) and the phshneo plasmid. (see U.S. Pat. No. 6,225,042 regarding construction and use of pRMHa plasmid vectors). The human cDNAs were prepared using standard techniques by reverse transcription-PCR using primers derived from the published sequences for HLA-A2.1 from K562 cells, B7.1 from K562 cells, LFA-3 from HL60 cells, ICAM-1 from K562 cells, and CD70 from HLA-A2.1+LCL cells. K562 cells are a human erythroleukemic cell line, HL60 cells are a promyelocytic leukemia human cell line, and HLA-A2.1+LCL cells are an Epstein-Barr virus (EBV)-transformed lymphoblastoid cell line (LCL). Stably transfected cells were selected by culturing in Schneider's medium containing geneticin. Prior to scale up of the cells, expression of the transfected genes is induced by the addition of CuSO4. The level of expression is assessed by flow cytometry using anti-HLA-A2.1, anti-B7.1, anti-LFA-3, anti-ICAM-1 and CD70 antibodies. For efficient in vitro activation of the CD8+ lymphocytes, greater than 30% of the Drosophila cells must express the HLA-A2.1 molecule. The Drosophila cells regularly express each of the molecules at levels between 70-90%. Drosophila aAPC were washed and then incubated at RT for 4 hours with 10 μM of different combinations of mixed peptides or individual peptides (See e.g. U.S. Pat. Nos. 6,225,042, 6,355,479, 6,362,001 and 6,790,662; U.S. Patent Application Publication Nos. 2009/0017000 and 2009/0004142; and International Publication No. WO2007/103009). Purified human CD8+ T cells from HLA-A2 positive donors were then incubated with peptide-loaded Drosophila APC at 37° C., 5% CO2, for 5 days. Human IL-2 (20 U/ml, R&D Systems) and IL-7 (30 U/ml, R&D Systems) were added at day 5 and the activated CD8+ T cells (CTL) were re-stimulated twice, at day 7 and day 15, with non-CD8 adherent cells in a total peripheral blood mononuclear cell (PBMC) preparation from the same donor in the presence of peptides.
A number of different CTL were generated using CD8+ T cells from different donors and different combinations of mixed peptides, including combinations that contained only one peptide. For example, 24 selected peptides were mixed or used individually to create different combinations of peptide mixtures (PM) or individual peptides (P5 and P14) and produce peptide-loaded Drosophila APC. The resulting peptide-loaded Drosophila APC were incubated with CD8+ T cells from 2 different donors (Donor 1 and Donor 2) to produce 11 different batches of CTL (Donor 1: PM1, PM2, PM3, PM4, and P14; Donor 2: PM1, PM2, PM3, PM4, P5, and P14) (Table 3).
CTL (Effector) activity was measured with a standard chromium (^51Cr) release assay, with T2 cells (Target) loaded with individual peptides and also with a number of tumor cell lines as target cells (Brunner et al., Immunology. 1968 February; 14(2):181-96). The highest Effector (E) Target (T) ratio (E/T) was 50:1, with 1:5 serial dilutions of CTL (Effector) used to produce a dose response. Before the assay, Target cells (T2 cells at 3×10^6 cells/100 ul in 1×PBS with 4% FCS) were labeled by adding 100 ul of ^51Cr (Perkin Elmer) and incubating at 37° C. for 1 hour. […]

[3] = T2 targets loaded with computer predicted peptides
[4] = truncated versions of P3, P13, P14
[5] = CTL generated with truncated peptides, T2 targets loaded with individual peptides

Substance | HLA-A2 Binding [1, 4] | Ability to induce CTL in normal donors [2] | CTL Activity [2, 5] | further results
LVYLGHVIYL (listed as Homo sapiens) [Peptide P3-11] |  | able to induce CTL |  | HLA-A2 Binding ([1]; computer predicted peptides): W; CTL Activity [2, 3]: S
IDLPGIT (listed as Homo sapiens) [Peptide P14-16] | W |  | W | 
KLHDAIVEVV (listed as Homo sapiens) [Peptide P13-16] |  |  |  | HLA-A2 Binding ([1]; computer predicted peptides): M; CTL Activity [2, 3]: W
FVPEVSFEL (listed as Homo sapiens) [Peptide P13-18] |  | able to induce CTL |  | HLA-A2 Binding ([1]; computer predicted peptides): S; CTL Activity [2, 3]: M
SLVLNLLEL (listed as Homo sapiens) [Peptide P3] | M |  | M | Induction of CTL in two normal donors [2]: induced CTL; CTL Activities Median [2]: 1/12; CTL Activities Strong [2]: 5/12; CTL Activities Weak [2]: 4/12; CTL Activities None [2]: 2/12
LIDLPGI (listed as Homo sapiens) [Peptide P14-15] | W | able to induce CTL | S | 
FQMEQIVYC (listed as Homo sapiens) [Peptide P14-19] |  | able to induce CTL |  | HLA-A2 Binding ([1]; computer predicted peptides): M; CTL Activity [2, 3]: M
NLLELVHLL (listed as Homo sapiens) [Peptide P3-9] |  | able to induce CTL |  | HLA-A2 Binding ([1]; computer predicted peptides): S
SLVLNLLE (listed as Homo sapiens) [Peptide P3-4] | N |  |  | 
DLPGMTK (listed as Homo sapiens) [Peptide P13-15] | N |  |  | 
LNLLEL (listed as Homo sapiens) [Peptide P3-3] | N |  |  | 
TLIDLPGITRV (listed as Homo sapiens) [Peptide P14] | M |  | M | Induction of CTL in two normal donors [2]: induced CTL; CTL Activities Median [2]: 1/17; CTL Activities Strong [2]: 14/17; CTL Activities Weak [2]: 1/17; CTL Activities None [2]: 1/17
LIDLPGITRV (listed as Homo sapiens) [Peptide P14-1] | N |  |  | 
KLHDAIVEV (listed as Homo sapiens) [Peptide P13-17] |  | able to induce CTL |  | HLA-A2 Binding ([1]; computer predicted peptides): S; CTL Activity [2, 3]: S
VDLPGMTK (listed as Homo sapiens) [Peptide P13-12] | N |  |  | 

Second part, led by results:

HLA-A2 Binding [1, 4] | Substance | Ability to induce CTL in normal donors [2] | CTL Activity [2, 5] | further results
M | LVDLPGM (listed as Homo sapiens) [Peptide P13-13] | able to induce CTL | W | 
N | TLVDLPGM (listed as Homo sapiens) [Peptide P13-8] |  | M | 
M | TLVDLPGMTKV (listed as Homo sapiens) [Peptide P13] |  | M | Induction of CTL in two normal donors [2]: induced CTL; CTL Activities Median [2]: 2/13; CTL Activities Strong [2]: 4/13; CTL Activities Weak [2]: 5/13; CTL Activities None [2]: 2/13
N | TLVDLP (listed as Homo sapiens) [Peptide P13-10] |  | S | 
N | LVLNLLE (listed as Homo sapiens) [Peptide P3-8] | able to induce CTL | M | 
W | IDLPGITR (listed as Homo sapiens) [Peptide P14-14] | able to induce CTL | M | 
N | VLNLLEL (listed as Homo sapiens) [Peptide P3-2] |  |  | 
